For one assay, the target named is D(1A) dopamine receptor (Homo sapiens, UniProt P21728).
Assay [1] deals with T1, 5-hydroxytryptamine receptor 3A (Mus musculus, UniProt P23979).
T1 sequence (P23979 whole entry): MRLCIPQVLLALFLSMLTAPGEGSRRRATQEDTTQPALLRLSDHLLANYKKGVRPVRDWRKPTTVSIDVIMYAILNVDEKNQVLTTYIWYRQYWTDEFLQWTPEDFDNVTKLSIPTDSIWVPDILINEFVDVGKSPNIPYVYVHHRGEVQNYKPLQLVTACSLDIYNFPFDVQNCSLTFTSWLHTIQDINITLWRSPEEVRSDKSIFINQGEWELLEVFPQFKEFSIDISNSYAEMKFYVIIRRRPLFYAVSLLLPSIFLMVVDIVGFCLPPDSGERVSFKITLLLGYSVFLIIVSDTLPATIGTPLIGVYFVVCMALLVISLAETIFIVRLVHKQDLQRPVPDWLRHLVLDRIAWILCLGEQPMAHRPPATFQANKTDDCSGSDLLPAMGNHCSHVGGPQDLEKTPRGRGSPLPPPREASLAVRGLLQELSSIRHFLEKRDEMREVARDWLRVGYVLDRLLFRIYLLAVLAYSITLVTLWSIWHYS

Assay [2] concerns the target 5-hydroxytryptamine receptor 2A (Rattus norvegicus, UniProt P14842).
Assay [3] deals with T2, 5-hydroxytryptamine receptor 1A (Homo sapiens, UniProt P08908).
T2 sequence (P08908 whole entry): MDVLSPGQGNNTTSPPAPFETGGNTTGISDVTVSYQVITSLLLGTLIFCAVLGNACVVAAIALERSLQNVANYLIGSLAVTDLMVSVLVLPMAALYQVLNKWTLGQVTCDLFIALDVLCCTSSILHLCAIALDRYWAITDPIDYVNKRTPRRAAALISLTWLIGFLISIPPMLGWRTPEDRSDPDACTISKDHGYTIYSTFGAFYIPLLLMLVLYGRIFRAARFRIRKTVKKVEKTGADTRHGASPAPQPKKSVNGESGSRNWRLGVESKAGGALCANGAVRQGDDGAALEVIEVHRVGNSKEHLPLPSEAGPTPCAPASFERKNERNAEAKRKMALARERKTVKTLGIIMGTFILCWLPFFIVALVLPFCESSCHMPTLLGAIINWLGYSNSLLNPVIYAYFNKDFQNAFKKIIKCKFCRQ

For assay [4], the target named is T3, 5-hydroxytryptamine receptor 2C (Rattus norvegicus, UniProt P08909).
T3 sequence (P08909 whole entry): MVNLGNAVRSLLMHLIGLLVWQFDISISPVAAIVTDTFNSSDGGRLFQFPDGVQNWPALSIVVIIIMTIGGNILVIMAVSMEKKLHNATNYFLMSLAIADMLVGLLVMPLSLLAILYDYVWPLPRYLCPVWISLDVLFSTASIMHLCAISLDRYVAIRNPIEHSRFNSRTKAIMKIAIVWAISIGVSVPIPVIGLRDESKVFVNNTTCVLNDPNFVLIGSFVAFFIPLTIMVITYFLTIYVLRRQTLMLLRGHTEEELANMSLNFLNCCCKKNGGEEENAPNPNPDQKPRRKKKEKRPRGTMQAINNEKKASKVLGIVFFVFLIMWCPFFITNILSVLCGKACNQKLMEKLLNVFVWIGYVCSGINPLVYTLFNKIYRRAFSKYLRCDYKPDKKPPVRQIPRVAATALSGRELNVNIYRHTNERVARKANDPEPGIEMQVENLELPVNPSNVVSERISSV

Structures can show the parent of a compound that is named as a salt.

In BindingDB's records for PubMed 9686407 (Sri International, 1998) one finds Ki data, which are given here for 35 compounds.

Chain of D(1A) dopamine receptor (P21728 whole entry): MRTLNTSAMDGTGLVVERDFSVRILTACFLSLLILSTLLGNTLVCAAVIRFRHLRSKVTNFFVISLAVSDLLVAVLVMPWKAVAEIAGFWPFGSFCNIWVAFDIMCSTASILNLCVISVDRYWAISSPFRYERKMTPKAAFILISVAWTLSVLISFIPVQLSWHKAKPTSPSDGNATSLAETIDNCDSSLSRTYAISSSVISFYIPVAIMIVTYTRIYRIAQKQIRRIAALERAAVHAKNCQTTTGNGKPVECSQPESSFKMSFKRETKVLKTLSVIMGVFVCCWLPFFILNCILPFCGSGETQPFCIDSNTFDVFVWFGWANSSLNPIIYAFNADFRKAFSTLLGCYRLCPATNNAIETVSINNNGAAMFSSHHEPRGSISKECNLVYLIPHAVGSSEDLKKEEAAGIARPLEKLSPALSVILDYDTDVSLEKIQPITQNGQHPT
Chain of 5-hydroxytryptamine receptor 2A (P14842 whole entry): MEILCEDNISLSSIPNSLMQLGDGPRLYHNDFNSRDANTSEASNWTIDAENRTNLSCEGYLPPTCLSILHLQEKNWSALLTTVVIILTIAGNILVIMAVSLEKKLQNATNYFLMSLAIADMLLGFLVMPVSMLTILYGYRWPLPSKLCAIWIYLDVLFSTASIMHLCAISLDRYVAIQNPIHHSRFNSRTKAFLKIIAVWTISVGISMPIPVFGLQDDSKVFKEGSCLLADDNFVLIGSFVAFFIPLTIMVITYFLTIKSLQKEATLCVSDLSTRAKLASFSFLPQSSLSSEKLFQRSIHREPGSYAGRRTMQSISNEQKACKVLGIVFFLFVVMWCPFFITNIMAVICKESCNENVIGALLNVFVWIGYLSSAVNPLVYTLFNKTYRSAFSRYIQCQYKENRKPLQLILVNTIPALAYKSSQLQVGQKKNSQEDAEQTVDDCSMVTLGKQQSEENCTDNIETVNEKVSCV

On to `CCCN(CCC)C1CCc2cccc(O)c2C1` (configuration not stated), for which the Ki (at D(1A) dopamine receptor; in assay [1]; in assay [2]) was above 10 µM throughout.
For the compound `Cc1nc2sccn2c(=O)c1CCN1CCC(=C(c2ccc(F)cc2)c2ccc(F)cc2)CC1`, the values for the Ki (at D(1A) dopamine receptor; in assay [1]) were 0.933 µM and above 10 µM, respectively.
With `Oc1cc2c(cc1O)[C@@H](c1ccccc1)CNCC2`, the Ki (usually a measure of affinity in units of concentration, obtained from inhibition or displacement) in assay [3] was 3.1 µM; in assay [1], above 10 µM; in assay [4] it was above 10 µM; in assay [2], 6.16 µM.
For the compound `C=CCN1CCc2cc(O)c(O)cc2C(c2ccccc2)C1` (configuration not stated), the inhibition constant (Ki) in assay [3] amounted to 2.11 µM; in assay [4], 3.04 µM; in assay [2], 2.7 µM.
As to `CC(N)Cc1ccc2c(c1)OCO2` (configuration not stated), the Ki (at D(1A) dopamine receptor; in assay [3]; in assay [1]) was above 10 µM each time.
Turning to `CC(C)(C)[C@]1(O)CCN2C[C@H]3c4ccccc4CCc4cccc(c43)[C@@H]2C1`, the Ki in assay [3] was 0.528 µM; in assay [1], above 10 µM; in assay [4], 1.06 µM; in assay [2], 0.0052 µM.
For the compound `CN(C)CCCN1c2ccccc2CCc2ccccc21`, the Ki was above 10 µM at D(1A) dopamine receptor, above 10 µM in assay [3], 3.65 µM in assay [1] and 0.106 µM in assay [4].
As to `Cc1[nH]c2ccc(O)cc2c1CCN`, the Ki is above 10 µM at D(1A) dopamine receptor, 0.995 µM in assay [1], 1.37 µM in assay [4] and above 10 µM in assay [2].
For the compound `NCCc1ccc(O)c(O)c1`, the Ki in assay [3] was 8.25 µM; in assay [1], above 10 µM; in assay [4], above 10 µM; in assay [2], above 10 µM.
With `C=CCN1CCc2c(cc(O)c(O)c2Cl)C(c2ccccc2)C1` (racemic) [SKF 82958], the Ki in assay [3] is 1.78 µM; in assay [1] it was above 10 µM; in assay [4] it was 4.63 µM; in assay [2], 1.29 µM.
As to `O=c1[nH]c2ccccc2n1C1CCN(CCCC(c2ccc(F)cc2)c2ccc(F)cc2)CC1` [1-(1-(4,4-bis(4-fluorophenyl)butyl)piperidin-4-yl)-1H-benzo[d]imidazol-2(3H)-one], the Ki in assay [1] was found to be 3.29 µM; in assay [4], 5.79 µM; in assay [2] it was 0.049 µM.
For the compound `c1ccc2nc(N3CCNCC3)ccc2c1` [2-Piperazin-1-yl-quinoline (Quipazine)], the inhibitory constant (Ki) at D(1A) dopamine receptor is above 10 µM; in assay [1], 0.0032 µM; in assay [4] it was 0.653 µM; in assay [2] it was 0.092 µM.
For `OCCN1CCN(CCCN2c3ccccc3Sc3ccc(C(F)(F)F)cc32)CC1` [2-[4-[3-[2-(trifluoromethyl)phenothiazin-10-yl]propyl]piperazin-1-yl]ethanol;hydrochloride], the Ki in assay [1] was above 10 µM.
In the case of `NC(Cc1ccc(O)c(O)c1)C(=O)O` (configuration not stated) [2-amino-3-(3,4-dihydroxyphenyl)propanoic acid], the Ki in assay [1], in assay [4] and in assay [2] was above 10 µM throughout.
Regarding `COc1ccccc1N1CCN(CCCCN2C(=O)c3ccccc3C2=O)CC1` [2-{4-[4-(2-Methoxy-phenyl)-piperazin-1-yl]-butyl}-isoindole-1,3-dione], the Ki on D(1A) dopamine receptor was 4.51 µM; in assay [1], above 10 µM; in assay [4], 4.12 µM; in assay [2] it was 0.549 µM.
Consider `O=C(c1ccc(F)cc1)C1CCN(CCn2c(=O)[nH]c3ccccc3c2=O)CC1` [3-(2-{4-[(4-fluorophenyl)carbonyl]piperidin-1-yl}ethyl)-1,2,3,4-tetrahydroquinazoline-2,4-dione], for which the results for the inhibition constant (Ki) in assay [1] and in assay [4] were above 10 µM and 0.069 µM, respectively.
On to `CCN(CC)CCNC(=O)c1cc(Cl)c(N)cc1OC` [4-amino-5-chloro-N-[2-(diethylamino)ethyl]-2-methoxy-benzamide;hydrochloride], for which the Ki was above 10 µM at D(1A) dopamine receptor, above 10 µM in assay [3], 0.353 µM in assay [1] and 3.86 µM in assay [4].
Turning to `O=C(CCCN1CCC2(CC1)C(=O)NCN2c1ccccc1)c1ccc(F)cc1` [8-[4-(4-fluorophenyl)-4-oxidanylidene-butyl]-1-phenyl-1,3,8-triazaspiro[4.5]decan-4-one], in assay [1], the inhibitory constant (Ki) is above 10 µM.
As for `CN1Cc2c(N)cccc2[C@H](c2ccccc2)C1` [(+/-)-2-Methyl-4-phenyl-1,2,3,4-tetrahydro-isoquinolin-8-ylamine], the figures for the Ki (at D(1A) dopamine receptor; in assay [3]; in assay [1]) were above 10 µM, 1.18 µM and above 10 µM, respectively.
`Oc1cc2c(c(Cl)c1O)CCNC[C@@H]2c1ccccc1` [(R)-6-Chloro-7,8-dihydroxy-1-phenyl-2,3,4,5-tetrahydro-1H-benzo[d]azepinium]: the Ki in assay [3] stood at 5.52 µM; in assay [4], 1.51 µM; in assay [2] it was 3.08 µM.
For `OCCN1CCN(CC/C=C2/c3ccccc3Sc3ccc(C(F)(F)F)cc32)CC1` [(cis) 2-{4-[3-(2-Trifluoromethyl-thioxanthen-9-ylidene)-propyl]-piperazin-1-yl}-ethanol(Flupentixol)], the values for the Ki in assay [3], in assay [1] and in assay [4] were 8.03 µM, above 10 µM and 0.295 µM, respectively.
`CN1CCc2cccc3c2[C@H]1Cc1ccc(O)c(O)c1-3` [APOKYN]: the Ki in assay [1] was above 10 µM; in assay [4] it was 1.1 µM; in assay [2] it was 4.38 µM.
As to `CNCCCN1c2ccccc2CCc2ccccc21` [Desmethylimipramine], the Ki in assay [1] was 4.4 µM; in assay [4], 0.748 µM.
Take `OCCN1CCN(CC/C=C2/c3ccccc3Sc3ccc(C(F)(F)F)cc32)CC1` [Fluphenthixol]: the affinity in assay [2], expressed as Ki, was 0.013 µM.
Regarding `CCN1CCCC1CNC(=O)c1cc(S(N)(=O)=O)ccc1OC` (configuration not stated) [N-[(1-ethylpyrrolidin-2-yl)methyl]-2-methoxy-5-sulfamoylbenzamide], the inhibition constant (Ki) (on D(1A) dopamine receptor; in assay [3]; in assay [1]) was above 10 µM throughout.
For `CCCN1CCC[C@@H]2Cc3n[nH]cc3C[C@H]21` [NSC_54562], the Ki in assay [3] was 1.71 µM; in assay [1], above 10 µM; in assay [4], above 10 µM; in assay [2], above 10 µM.
Take `Cc1nccn1CC1CCc2c(c3ccccc3n2C)C1=O` (configuration not stated) [NSC_68647]: the values for the Ki (on D(1A) dopamine receptor; in assay [3]; in assay [1]) were above 10 µM, above 10 µM and 0.015 µM, respectively.
Consider `CNc1cc(OC)c(C(=O)N[C@H]2CCN(Cc3ccccc3)[C@H]2C)cc1Cl` [Nemonapride], for which the inhibition constant (Ki) came to 0.526 µM in assay [1], 3.12 µM in assay [4] and 0.058 µM in assay [2].
For the compound `CN1CCc2cc(Cl)c(O)cc2[C@@H](c2ccccc2)C1` [SCH 23390,R(+)], the Ki is 0.661 µM in assay [3], 3.91 µM in assay [1], 0.051 µM in assay [4] and 0.0122 µM in assay [2].
`Cc1ccc(N(CC2=NCCN2)c2cccc(O)c2)cc1` [SMR000059054]: the Ki in assay [1] was 4.29 µM; in assay [4], 0.459 µM; in assay [2], 0.222 µM.
Consider `N[C@@H]1C[C@H]1c1ccccc1` [Tranylcypromine,(+)], for which the Ki in assay [3] is 5.96 µM; in assay [1], above 10 µM; in assay [4] it was above 10 µM; in assay [2], above 10 µM.
The compound `CN(C)CCCN1c2ccccc2Sc2ccc(Cl)cc21` [[3-(2-Chloro-phenothiazin-10-yl)-propyl]-dimethyl-amine(Chlorpromazine)] gave a Ki in assay [1] of 0.82 µM.
Take `C[C@H](N)Cc1ccccc1` [beta-aminopropylbenzene]: the values for the Ki in assay [3] and in assay [1] were 6.61 µM and above 10 µM, respectively.
Consider `CN(C)C/C=C(/c1ccc(Br)cc1)c1cccnc1` [cis-[3-(4-Bromo-phenyl)-3-pyridin-3-yl-allyl]-dimethyl-amine;HCl], for which the Ki in assay [1] was above 10 µM; in assay [4] it was 0.482 µM.
Turning to `COC(=O)[C@@H]1[C@H]2C[C@H]3c4[nH]c5ccccc5c4CCN3C[C@@H]2CC[C@@H]1O` [yohimbic acid methyl ester], in assay [4], the Ki is above 10 µM.
